In brackets after ≈: the same amount, converted by molar mass. Like-named read-outs stand apart in the source and are kept apart here.

Assay [1] relates to 11 VRE strains, clinically isolated. Description: Minimal inhibitory concentration (MIC>90) in MH II medium. Type of assay: cell-based, vancomycin-resistant enterococci. As to conditions: for MIC: Enterococcus, VRE. As for the experimental part: (§1) The MIC (minimal inhibitory concentration) against VRE and MRSA was measured to test antibiotic activity of Macrolactin A produced by Bacillus polyfermenticus KJS-2, which is the strain of the present invention, against the two strains. The strains used for the experiment were 11 VRE strains and 13 MRSA strains, which were clinically isolated. Each strain used for the experiment was cultured in MH II medium at 200 rpm for 6 hours at 37° C., the absorbance of the medium measured at OD600nm using a UV detector, and then 1 ml aliquot of the medium was spread over MH II agar medium and incubated for 16 hours at 37° C. The number of colonies formed on the agar medium after 16 hours of incubation was counted. Each strain used for experiment was cultured in MH II medium at 200 rpm for 6 hours at 37° C., and the absorbance of the medium was measured at OD600nm using a UV detector. The number of cells were calculated based on the ratio of the number of colonies to the absorbance of the medium, and measured by the above process. Each culture medium was diluted to the final cell concentration of 0.25*10^7 cfu/ml and Macrolactin A was dissolved in the solvent DMSO, while ampicillin, teycoplanin, vancomycin and methillin were dissolved in water. To measure the MIC of Macrolactin A or of the four antibiotics, the mixture of the materials listed in Table 5 and Macrolactin A or the mixture of the materials listed in Table 6 and each of the four antibiotics, respectively in a 500 μl eppendorff tub, was incubated at 200 rpm for 16 hours at 37° C., and then absorbance was measured by a UV/Visible Light detector at 600 nm using a Fluorescence Multi-Detection Reader.

In assay [2] the test system is 13 MRSA strains, clinically isolated. Described as above. It counts as cell-based, methicillin-resistant Staphylococcus aureus. The following applies: for MIC: Staphylococcus aureus, MRSA. Here is the method: as §1
The next assay relates to VRE5. The experiment in a line: Bioassay at a gradient of concentration on TSB agar medium. Type of assay: cell-based, vancomycin-resistant enterococci. As to conditions: solution 5 mg/ml in H2O.
The subject of assay [3] is methicillin-resistant Staphylococcus aureu (MRSA). The following applies: cited from earlier work.
Assay [4] concerns vancomycin-resistant enterococci (VRE). As to conditions: cited from earlier work.
The next assay relates to Burkholderia cepacia. As to conditions: cited from earlier work.

A word on the MIC: it is the lowest concentration found to suppress growth. `CC1(C)S[C@@H]2[C@H](NC(=O)[C@H](N)c3ccccc3)C(=O)N2[C@H]1C(=O)O` [Ampicillin]: the MIC is 273 µg/mL (≈ 781 µM) in assay [1] (Average of the 11 VRE strains, read-out: average MIC>90); 250 µg/mL (≈ 715 µM) in assay [1] (VRE1, read-out: MIC>90); 250 µg/mL (≈ 715 µM) in assay [1] (VRE2, read-out: MIC>90); 250 µg/mL (≈ 715 µM) in assay [1] (VRE3, read-out: MIC>90); 250 µg/mL (≈ 715 µM) in assay [1] (VRE4, read-out: MIC>90); 250 µg/mL (≈ 715 µM) in assay [1] (VRE5, read-out: MIC>90). Further, the MIC is 250 µg/mL (≈ 715 µM) in assay [1] (VRE6, read-out: MIC>90); 250 µg/mL (≈ 715 µM) in assay [1] (VRE7, read-out: MIC>90); 250 µg/mL (≈ 715 µM) in assay [1] (VRE9, read-out: MIC>90); 250 µg/mL (≈ 715 µM) in assay [1] (VRE10, read-out: MIC>90); 250 µg/mL (≈ 715 µM) in assay [1] (VRE914, read-out: MIC>90); 500 µg/mL (≈ 1430 µM) in assay [1] (VRE915, read-out: MIC>90). For the same compound, the MIC stood at 212 µg/mL (≈ 605 µM) in assay [2] (Average of the 13 MRSA strains, read-out: average MIC>90); 250 µg/mL (≈ 715 µM) in assay [2] (MRSA1, read-out: MIC>90); 250 µg/mL (≈ 715 µM) in assay [2] (MRSA2, read-out: MIC>90); 250 µg/mL (≈ 715 µM) in assay [2] (MRSA3, read-out: MIC>90); 250 µg/mL (≈ 715 µM) in assay [2] (MRSA4, read-out: MIC>90); 250 µg/mL (≈ 715 µM) in assay [2] (MRSA5, read-out: MIC>90). Further, the MIC turned out to be 250 µg/mL (≈ 715 µM) in assay [2] (MRSA6, read-out: MIC>90); 250 µg/mL (≈ 715 µM) in assay [2] (MRSA7, read-out: MIC>90); 125 µg/mL (≈ 358 µM) in assay [2] (MRSA8*, read-out: MIC>90); 125 µg/mL (≈ 358 µM) in assay [2] (MRSA8, read-out: MIC>90); 125 µg/mL (≈ 358 µM) in assay [2] (MRSA9, read-out: MIC>90); 250 µg/mL (≈ 715 µM) in assay [2] (MRSA10, read-out: MIC>90). Further, the MIC in assay [2] (MRSA11*, read-out: MIC>90) worked out at 250 µg/mL (≈ 715 µM); in assay [2] (MRSA11, read-out: MIC>90), 125 µg/mL (≈ 358 µM).

As to `CN[C@H](CC(C)C)C(=O)N[C@H]1C(=O)N[C@@H](CC(N)=O)C(=O)N[C@H]2C(=O)N[C@H]3C(=O)N[C@H](C(=O)N[C@H](C(=O)O)c4cc(O)cc(O)c4-c4cc3ccc4O)[C@H](O)c3ccc(c(Cl)c3)Oc3cc2cc(c3O[C@@H]2O[C@H](CO)[C@@H](O)[C@H](O)[C@H]2O[C@H]2C[C@](C)(N)[C@H](O)[C@H](C)O2)Oc2ccc(cc2Cl)[C@H]1O` [Vancomycin], the MIC in assay [1] (read-out: MIC>90, VRE1) came to 500 µg/mL (≈ 345 µM); in assay [1] (read-out: MIC>90, VRE2), 500 µg/mL (≈ 345 µM); in assay [1] (read-out: MIC>90, VRE3) it was 125 µg/mL (≈ 86.3 µM); in assay [1] (read-out: MIC>90, VRE4) it was 250 µg/mL (≈ 173 µM); in assay [1] (read-out: MIC>90, VRE5) it was 250 µg/mL (≈ 173 µM); in assay [1] (read-out: MIC>90, VRE6), 250 µg/mL (≈ 173 µM). Besides, the MIC was found to be 250 µg/mL (≈ 173 µM) in assay [1] (read-out: MIC>90, VRE7); 250 µg/mL (≈ 173 µM) in assay [1] (read-out: MIC>90, VRE9); 125 µg/mL (≈ 86.3 µM) in assay [1] (read-out: MIC>90, VRE10); 125 µg/mL (≈ 86.3 µM) in assay [1] (read-out: MIC>90, VRE914); 250 µg/mL (≈ 173 µM) in assay [1] (read-out: MIC>90, VRE915); 261 µg/mL (≈ 180 µM) in assay [1] (read-out: average MIC>90, Average of the 11 VRE strains). Further, the MIC in assay [2] (read-out: MIC>90, MRSA1) was found to be 250 µg/mL (≈ 173 µM); in assay [2] (read-out: MIC>90, MRSA2), 125 µg/mL (≈ 86.3 µM); in assay [2] (read-out: MIC>90, MRSA3), 125 µg/mL (≈ 86.3 µM); in assay [2] (read-out: MIC>90, MRSA4), 125 µg/mL (≈ 86.3 µM); in assay [2] (read-out: MIC>90, MRSA5), 125 µg/mL (≈ 86.3 µM); in assay [2] (read-out: MIC>90, MRSA6) it was 250 µg/mL (≈ 173 µM). The MIC in assay [2] (read-out: MIC>90, MRSA7) was found to be 250 µg/mL (≈ 173 µM); in assay [2] (read-out: MIC>90, MRSA8), 125 µg/mL (≈ 86.3 µM); in assay [2] (read-out: MIC>90, MRSA8*) it was 125 µg/mL (≈ 86.3 µM); in assay [2] (read-out: MIC>90, MRSA9) it was 250 µg/mL (≈ 173 µM); in assay [2] (read-out: MIC>90, MRSA10), 250 µg/mL (≈ 173 µM); in assay [2] (read-out: MIC>90, MRSA11) it was 250 µg/mL (≈ 173 µM). The MIC in assay [2] (read-out: MIC>90, MRSA11*) amounted to 31.2 µg/mL (≈ 21.6 µM); in assay [2] (read-out: average MIC>90, Average of the 13 MRSA strains), 175 µg/mL (≈ 121 µM). Moreover, the “inhibition of VRE5 on TSB agar medium” value in the assay with VRE5 is reported as “not inhibited”.

On to Teicoplanin, for which the “average MIC>90” value is 125 µg/mL in assay [1] (Average of the 11 VRE strains) and 104.6 µg/mL in assay [2] (Average of the 13 MRSA strains). Also, the “MIC>90” value in assay [1] (VRE1) was 250 µg/mL; in assay [1] (VRE2), 250 µg/mL; in assay [1] (VRE3) it was 62.5 µg/mL; in assay [1] (VRE4), 125 µg/mL; in assay [1] (VRE5), 125 µg/mL; in assay [1] (VRE6) it was 125 µg/mL. Besides, the “MIC>90” value in assay [1] (VRE7) was 125 µg/mL; in assay [1] (VRE9) it was 62.5 µg/mL; in assay [1] (VRE10), 62.5 µg/mL; in assay [1] (VRE914), 62.5 µg/mL; in assay [1] (VRE915) it was 125 µg/mL; in assay [2] (MRSA1), 250 µg/mL. Besides, the “MIC>90” value worked out at 125 µg/mL in assay [2] (MRSA2); 125 µg/mL in assay [2] (MRSA3); 125 µg/mL in assay [2] (MRSA4); 125 µg/mL in assay [2] (MRSA5); 125 µg/mL in assay [2] (MRSA6); 250 µg/mL in assay [2] (MRSA7). The “MIC>90” value was 62.5 µg/mL in assay [2] (MRSA8); 31.25 µg/mL in assay [2] (MRSA8*); 15.63 µg/mL in assay [2] (MRSA9); 31.25 µg/mL in assay [2] (MRSA10); 31.25 µg/mL in assay [2] (MRSA11); 62.5 µg/mL in assay [2] (MRSA11*).

Regarding `CC1CCC/C=C/C=C/C(O)CC(O)C/C=C\C=C\C(OC(=O)CC(=O)O)C/C=C/C=C\C(=O)O1` (stereo not shown) [Malonyl-macrolactin A (MMA), Malonyl-macrolactin A], in assay [3], the “antibiotic activity against MRSA” value is given as “excellent antibiotic activity”. In assay [4], the “antibiotic activity against VRE” value is given as “excellent antibiotic activity”. Besides, in the assay on Burkholderia cepacia, the “antibiotic activity against Burkholderia cepacia” value is listed as “excellent antibiotic activity”.
